Measurements as given in patent US20220105188A1, “TARGET PROTEIN EED DEGRADATION-INDUCING DEGRADUCER, PREPARATION METHOD THEREOF, AND PHARMACEUTICAL COMPOSITION FOR PREVENTING OR TREATING DISEASES RELATED TO EED, EZH2, OR PRC2, COMPRISING SAME AS ACTIVE INGREDIENT” (KOREA RESEARCH INSTITUTE OF CHEMICAL TECHNOLOGY, priority 2019, published 2022).

molecular target: T1, EED (Homo sapiens, UniProt O75530); test: EED Proteolytic Activity Evaluation 2 (western blot, Hela cells); assay type: cell-based; details: 1 nM, 10 nM, 100 nM and 1000 nM, 20 hours of treatment
T1 construct: 2×10^5 Hela cells were injected into a 12-well plate; endogenous in cells; host or cells: HeLa
Experimental: [Experiment 2] EED Proteolytic Activity Evaluation 2
In order to evaluate the EED proteolytic activity of the compound according to the present invention, an experiment was conducted as follows.
Specifically, 2×10^5 Hela cells were injected into a 12-well plate, and after 8 hours of stabilization, each well was treated with the example compounds to have final concentrations of 1 nM, 10 nM, 100 nM, and 1000 nM. One well was treated with the volume of DMSO contained in the sample corresponding to the highest concentration in the experimental group. After 20 hours of treatment, the cells were collected and lysed using 80 μl of SDS Lysis buffer (50 mM Tris pH8.0, 1% SDS, 1 mM EDTA, 0.5 mM PMSF, and protease inhibitor cocktail) and then sonication (30 sec on/59 sec off), 5 cycles) to prepare a cell lysate, followed by protein quantification through BCA, followed by Western blot, and the results are shown in Table 3. (Maximum EED degradation rate: A: >50%, B: 25-50%, C: <25%)

T1 sequence (O75530 whole entry): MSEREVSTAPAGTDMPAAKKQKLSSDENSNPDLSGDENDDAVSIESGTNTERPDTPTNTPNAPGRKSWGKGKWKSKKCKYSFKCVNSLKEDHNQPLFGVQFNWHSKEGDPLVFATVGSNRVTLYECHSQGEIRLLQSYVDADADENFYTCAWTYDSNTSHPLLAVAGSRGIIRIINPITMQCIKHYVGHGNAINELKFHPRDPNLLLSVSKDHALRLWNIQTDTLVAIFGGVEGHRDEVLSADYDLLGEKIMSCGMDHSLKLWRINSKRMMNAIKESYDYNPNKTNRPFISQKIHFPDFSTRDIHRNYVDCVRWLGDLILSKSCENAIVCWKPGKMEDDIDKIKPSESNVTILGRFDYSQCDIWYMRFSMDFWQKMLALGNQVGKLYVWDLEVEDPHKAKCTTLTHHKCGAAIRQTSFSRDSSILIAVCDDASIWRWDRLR

Row | Structure (SMILES) | EED degradation rate (Maximum EED degradation rate)
1 | Cc1cccc(F)c1CN1C[C@H](c2ccc(N3CCN(C(=O)CCC4CCN(C(=O)CNc5ccc6c(c5)C(=O)N(C5CCC(=O)NC5=O)C6=O)CC4)CC3)cc2)[C@@H](N(C)C)C1 (stereo partly drawn) [Example 140, 5-((2-(4-(3-(4-(4-((3S,4R)-4-(dimethylamino)-1-(2-fluoro-6-methylbenzyl)pyrrolidin-3-yl)phenyl)piperazin-1-yl)-3-oxopropyl)piperidin-1-yl)-2-oxoethyl)amino)-2-(2,6-dioxopiperidin-3-yl)isoindolin-1,3-dione] | A (A: >50%)
2 | Cc1cccc(F)c1CN1C[C@H](c2ccc(N3CCN(C(=O)CC4CCN(C(=O)CNc5ccc6c(c5)C(=O)N(C5CCC(=O)NC5=O)C6=O)CC4)CC3)cc2)[C@@H](N(C)C)C1 (stereo partly drawn) [Example 146, 5-((2-(4-(2-(4-(4-((3S,4R)-4-(dimethylamino)-1-(2-fluoro-6-methylbenzyl)pyrrolidin-3-yl)phenyl)piperazin-1-yl)-2-oxoethyl)piperidin-1-yl)-2-oxoethyl)amino)-2-(2,6-dioxopiperidin-3-yl)isoindolin-1,3-dione] | A (A: >50%)
3 | Cc1cccc(F)c1CN1C[C@H](c2ccc(N3CCN(C(=O)COCCOCCOCCNC(=O)CNc4ccc5c(c4)C(=O)N(C4CCC(=O)NC4=O)C5=O)CC3)cc2)[C@@H](N(C)C)C1 (stereo partly drawn) [Example 122, N-(2-(2-(2-(2-(4-(4-((3S,4R)-4-(dimethylamino)-1-(2-fluoro-6-methylbenzyl)pyrrolidin-3-yl)phenyl)piperazin-1-yl)-2-oxoethoxy)ethoxy)ethoxy)ethyl)-2-((2-(2,6-dioxopiperidin-3-yl)-1,3-dioxoisoindolin-5-yl)amino)acetamide] | A (A: >50%)
4 | Cc1cccc(F)c1CN1C[C@H](c2ccc(N3CCN(CCC4CCN(C(=O)COc5ccc6c(c5)C(=O)N(C5CCC(=O)NC5=O)C6=O)CC4)CC3)cc2)[C@@H](N(C)C)C1 (stereo partly drawn) [Example 150, 5-(2-(4-(2-(4-(4-((3S,4R)-4-(dimethylamino)-1-(2-fluoro-6-methylbenzyl)pyrrolidin-3-yl)phenyl)piperazin-1-yl)ethyl)piperidin-1-yl)-2-oxoethoxy)-2-(2,6-dioxopiperidin-3-yl)isoindolin-1,3-dione] | A (A: >50%)
5 | Cc1cccc(F)c1CN1C[C@H](c2ccc(N3CCN(C(=O)CCCNc4cccc5c4C(=O)N(C4CCC(=O)NC4=O)C5=O)CC3)cc2)[C@@H](N(C)C)C1 (stereo partly drawn) [Example 123, 4-((4-(4-(4-((3S,4R)-4-(dimethylamino)-1-(2-fluoro-6-methylbenzyl)pyrrolidin-3-yl)phenyl)piperazin-1-yl)-4-oxobutyl)amino)-2-(2,6-dioxopiperidin-3-yl)isoindolin-1,3-dione] | B (B: 25-50%)
6 | O=C(CNc1ccc2nnn(C3CCC(=O)NC3=O)c(=O)c2c1)NCCOCCOCCN1CCC(n2cc(-c3cnc(NCc4ccco4)n4cnnc34)cn2)CC1 (stereo not drawn) [Example 130, 2-((3-(2,6-dioxopiperidin-3-yl)-4-oxo-3,4-dihydrobenzo[d][1,2,3]triazin-6-yl)amino)-N-(2-(2-(2-(4-(4-(5-((furan-2-ylmethyl)amino)-[1,2,4]triazolo[4,3-c]pyrimidin-8-yl)-1H-pyrazol-1-yl)piperidin-1-yl)ethoxy)ethoxy)ethyl)acetamide] | C (C: <25%)
7 | O=C1CCC(n2nnc3ccc(NCC(=O)N4CCC(CN5CCC(n6cc(-c7cnc(NCc8ccco8)n8cnnc78)cn6)CC5)CC4)cc3c2=O)C(=O)N1 (stereo not drawn) [Example 128, 3-(6-((2-(4-((4-(4-(5-((furan-2-ylmethyl)amino)-[1,2,4]triazolo[4,3-c]pyrimidin-8-yl)-1H-pyrazol-1-yl)piperidin-1-yl)methyl)piperidin-1-yl)-2-oxoethyl)amino)-4-oxobenzo[d][1,2,3]triazin-3 (4H)-yl)piperidin-2,6-dione] | C (C: <25%)
8 | Cc1cccc(F)c1CN1C[C@H](c2ccc(N3CCN(CCOCCOCCOCCNC(=O)CNc4ccc5c(c4)C(=O)N(C4CCC(=O)NC4=O)C5=O)CC3)cc2)[C@@H](N(C)C)C1 (stereo partly drawn) [Example 135, N-(2-(2-(2-(2-(4-(4-((3S,4R)-4-(dimethylamino)-1-(2-fluoro-6-methylbenzyl)pyrrolidin-3-yl)phenyl)piperazin-1-yl)ethoxy)ethoxy)ethoxy)ethyl)-2-((2-(2,6-dioxopiperidin-3-yl)-1,3-dioxoisoindolin-5-yl)amino)acetamide] | B (B: 25-50%)
9 | Cc1cccc(F)c1CN1C[C@H](c2ccc(N3CCN(CCC4CCN(c5ccc6c(c5)C(=O)N(C5CCC(=O)NC5=O)C6=O)CC4)CC3)cc2)[C@@H](N(C)C)C1 (stereo partly drawn) [Example 154, 5-(4-(2-(4-(4-((3S,4R)-4-(dimethylamino)-1-(2-fluoro-6-methylbenzyl)pyrrolidin-3-yl)phenyl)piperazin-1-yl)ethyl)piperidin-1-yl)-2-(2,6-dioxopiperidin-3-yl)isoindolin-1,3-dione] | A (A: >50%)
10 | Cc1cccc(F)c1CN1C[C@H](c2ccc(N3CCN(C(=O)CC4CCN(c5ccc6c(c5)C(=O)N(C5CCC(=O)NC5=O)C6=O)CC4)CC3)cc2)[C@@H](N(C)C)C1 (stereo partly drawn) [Example 132, 5-(4-(2-(4-(4-((3S,4R)-4-(dimethylamino)-1-(2-fluoro-6-methylbenzyl)pyrrolidin-3-yl)phenyl)piperazin-1-yl)-2-oxoethyl)piperidin-1-yl)-2-(2,6-dioxopiperidin-3-yl)isoindolin-1,3-dione] | A (A: >50%)
11 | Cc1cccc(F)c1CN1C[C@H](c2ccc(N3CCN(CC4CCN(CC5CCN(c6ccc7c(c6)C(=O)N(C6CCC(=O)NC6=O)C7=O)CC5)CC4)CC3)cc2)[C@@H](N(C)C)C1 (stereo partly drawn) [Example 134, 5-(4-((4-((4-(4-((3S,4R)-4-(dimethylamino)-1-(2-fluoro-6-methylbenzyl)pyrrolidin-3-yl)phenyl)piperazin-1-yl)methyl)piperidin-1-yl)methyl)piperidin-1-yl)-2-(2,6-dioxopiperidin-3-yl)isoindolin-1,3-dione] | B (B: 25-50%)
12 | Cc1cccc(F)c1CN1C[C@H](c2ccc(N3CCN(CCC4CCN(C(=O)CNc5cccc6c5C(=O)N(C5CCC(=O)NC5=O)C6=O)CC4)CC3)cc2)[C@@H](N(C)C)C1 (stereo partly drawn) [Example 152, 4-((2-(4-(2-(4-(4-((3S,4R)-4-(dimethylamino)-1-(2-fluoro-6-methylbenzyl)pyrrolidin-3-yl)phenyl)piperazin-1-yl)ethyl)piperidin-1-yl)-2-oxoethyl)amino)-2-(2,6-dioxopiperidin-3-yl)isoindolin-1,3-dione] | A (A: >50%)
13 | Cc1cccc(F)c1CN1C[C@H](c2ccc(N3CCN(CCC4CCN(C(=O)CNc5ccc6c(c5)C(=O)N(C5CCC(=O)NC5=O)C6=O)CC4)CC3)cc2)[C@@H](N(C)C)C1 (stereo partly drawn) [Example 136, 5-((2-(4-(2-(4-(4-((3S,4R)-4-(dimethylamino)-1-(2-fluoro-6-methylbenzyl)pyrrolidin-3-yl)phenyl)piperazin-1-yl)ethyl)piperidin-1-yl)-2-oxoethyl)amino)-2-(2,6-dioxopiperidin-3-yl)isoindolin-1,3-dione] | A (A: >50%)
14 | Cc1cccc(F)c1CN1C[C@H](c2ccc(N3CCN(C(=O)CCC4CCN(C(=O)COc5ccc6c(c5)C(=O)N(C5CCC(=O)NC5=O)C6=O)CC4)CC3)cc2)[C@@H](N(C)C)C1 (stereo partly drawn) [Example 147, 5-(2-(4-(3-(4-(4-((3S,4R)-4-(dimethylamino)-1-(2-fluoro-6-methylbenzyl)pyrrolidin-3-yl)phenyl)piperazin-1-yl)-3-oxopropyl)piperidin-1-yl)-2-oxoethoxy)-2-(2,6-dioxopiperidin-3-yl)isoindolin-1,3-dione] | B (B: 25-50%)
15 | Cc1cccc(F)c1CN1C[C@H](c2ccc(N3CCN(C(=O)CCC4CCN(C(=O)COc5cccc6c5C(=O)N(C5CCC(=O)NC5=O)C6=O)CC4)CC3)cc2)[C@@H](N(C)C)C1 (stereo partly drawn) [Example 148, 4-(2-(4-(3-(4-(4-((3S,4R)-4-(dimethylamino)-1-(2-fluoro-6-methylbenzyl)pyrrolidin-3-yl)phenyl)piperazin-1-yl)-3-oxopropyl)piperidin-1-yl)-2-oxoethoxy)-2-(2,6-dioxopiperidin-3-yl)isoindolin-1,3-dione] | A (A: >50%)
